According to US20090264401A1, “SUBSTITUTED PYRIMIDIN-5-CARBOXAMIDES 281” (AstraZeneca AB, priority 2008, published 2009):

What follows are compounds tested against T1, human 11βHSD1 enzyme (Homo sapiens, UniProt P28845) (assay: 11βHSD1 cortisone to cortisol conversion, competitive HTRF assay). Settings: human 11-βHSD; test concentration of 30 μM of compound.
T1 construct: baculovirus expressed N terminal 6-His tagged full length human 11βHSD1 enzyme; 6-His (N); made in house
Format: biochemical
Experimental: The evaluation of compounds described herein was carried out using a baculovirus expressed N terminal 6-His tagged full length human 11βHSD1 enzyme(*1). The enzyme was purified from a detergent solubilised cell lysate, using a copper chelate column. Inhibitors of 11βHSD1 reduce the conversion of cortisone to cortisol, which is identified by an increase in signal, in the above assay.
Compounds to be tested were dissolved in dimethyl sulphoxide (DMSO) to 10 mM and diluted further in assay buffer containing 1% DMSO to 10 fold the final assay concentration. Diluted compounds were then plated into black 384 well plates (Matrix, Hudson N.H., USA).
Fluorescence at 665 nm and 620 nm was measured and the 665 nm:620 nm ratio calculated using an Envision plate reader.

T1 sequence (P28845 whole entry): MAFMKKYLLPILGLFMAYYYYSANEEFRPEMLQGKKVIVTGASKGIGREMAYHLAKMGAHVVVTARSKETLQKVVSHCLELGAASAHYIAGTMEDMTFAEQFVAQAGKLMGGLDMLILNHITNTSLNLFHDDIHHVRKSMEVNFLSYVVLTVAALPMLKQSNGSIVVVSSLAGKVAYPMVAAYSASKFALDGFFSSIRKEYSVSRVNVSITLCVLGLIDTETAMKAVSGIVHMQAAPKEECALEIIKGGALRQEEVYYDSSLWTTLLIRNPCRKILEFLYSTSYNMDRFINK

Row | inhibition at 30 µM | Structure (SMILES)
1 | 105% | O=C(N[C@H]1C2CC3CC1C[C@@](O)(C3)C2)c1cnc(N2CCOCC2CO)nc1C1CCCC1 (stereo partly shown) [Example 141, 4-cyclopentyl-N-[(2r,5s)-5-hydroxyadamantan-2-yl]-2-[3-(hydroxymethyl)morpholin-4-yl]pyrimidine-5-carboxamide]
2 | 102% | O=C(N[C@H]1C2CC3CC1C[C@@](O)(C3)C2)c1cnc(N2CCC2)nc1C1CC1 [Example 53, 2-(azetidin-1-yl)-4-cyclopropyl-N-[(2r,5s)-5-hydroxyadamantan-2-yl]pyrimidine-5-carboxamide]
3 | 95.5% | O=C(N[C@H]1C2CC3CC1C[C@@](O)(C3)C2)c1cnc(N2CC(F)(F)C2)nc1C1CCC1 [Example 89, 4-cyclobutyl-2-(3,3-difluoroazetidin-1-yl)-N-[(2r,5s)-5-hydroxyadamantan-2-yl]pyrimidine-5-carboxamide]
4 | 103% | CCCSc1nc(N2CCN(S(C)(=O)=O)CC2)ncc1C(=O)NC1C2CC3CC(C2)CC1C3 (stereo not shown) [Example 28, N-(2-adamantyl)-2-(4-methylsulfonylpiperazin-1-yl)-4-propylsulfanyl-pyrimidine-5-carboxamide]
5 | 105% | COc1nc(NC2CC2)ncc1C(=O)N[C@H]1C2CC3CC1C[C@@](O)(C3)C2 [Example 206, 2-(cyclopropylamino)-N-[(2r,5s)-5-hydroxytricyclo[3.3.1.13,7]dec-2-yl]-4-methoxypyrimidine-5-carboxamide]
6 | 103% | CSc1ncc(C(=O)N[C@H]2C3CC4CC2C[C@@](O)(C4)C3)c(C2CCCCC2)n1 [Example 195, 4-Cyclohexyl-N-[(2r,5 s)-5-hydroxyadamantan-2-yl]-2-(methylthio)pyrimidine-5-carboxamide]
7 | 88.8% | O=C(N[C@H]1C2CC3CC1C[C@@](O)(C3)C2)c1cnc(N2CCC2)nc1C1CCC1 [Example 85, 2-Azetidin-1-yl-4-cyclobutyl-N-[(2r,5s)-5-hydroxyadamantan-2-yl]pyrimidine-5-carboxamide]
8 | 98.8% | O=C(N[C@H]1C2CC3CC1C[C@@](O)(C3)C2)c1cnc(NC2CC2)nc1[C@@H]1CCCO1 [Example 180, 2-(cyclopropylamino)-N-[(2r,5s)-5-hydroxyadamantan-2-yl]-4-[(2S)-oxolan-2-yl]pyrimidine-5-carboxamide]
9 | 98% | O=C(N[C@H]1C2CC3CC1C[C@@](O)(C3)C2)c1cnc(N2CCC[S+]([O-])CC2)nc1C1CC1 (stereo partly shown) [Example 44, 4-Cyclopropyl-N-[(2r,5s)-5-hydroxyadamantan-2-yl]-2-(1-oxo-1,4-thiazepan-4-yl)pyrimidine-5-carboxamide]
10 | 99.4% | C[C@@H]1CN(c2ncc(C(=O)N[C@H]3C4CC5CC3C[C@@](O)(C5)C4)c(C3CC3)n2)C[C@H](C)O1 [Example 42, 4-Cyclopropyl-2-(2,6-dimethylmorpholin-4-yl)-N-[(2r,5s)-5-hydroxyadamantan-2-yl]pyrimidine-5-carboxamide]
11 | 95.5% | O=C(N[C@H]1C2CC3CC1C[C@](O)(C3)C2)c1cnc(NC2CCC2)nc1C1CCCC1 [Example 129, 4-cyclopentyl-2-(cyclobutylamino)-N-[(2r,5s)-5-hydroxyadamantan-2-yl]pyrimidine-5-carboxamide]
12 | 92.7% | C[C@@H]1CN(c2ncc(C(=O)N[C@H]3C4CC5CC3C[C@@](O)(C5)C4)c(C3CC3)n2)C[C@@H](C)O1 [Example 63, 4-cyclopropyl-2-[(2R,6R)-2,6-dimethylmorpholin-4-yl]-N-[(2r,5s)-5-hydroxyadamantan-2-yl]pyrimidine-5-carboxamide]
13 | 102% | C[C@@H]1CN(c2ncc(C(=O)N[C@H]3C4CC5CC3C[C@@](O)(C5)C4)c(C3CCC3)n2)C[C@@H](C)O1 [Example 101, 4-cyclobutyl-2-[(2R,6R)-2,6-dimethylmorpholin-4-yl]-N-[(2r,5s)-5-hydroxyadamantan-2-yl]pyrimidine-5-carboxamide]
